# Laboratory results taken from publication PMC5548886 (Cancer Medicine, 2017).
# Assays:
# Experiment in all cases: IHC of tumor biopsies, H-score change on-treatment vs pretreatment
# Type in all cases: in vivo, human
# p27 = test system: p27
# Description: (§1) Pharmacodynamic markers were examined using peripheral blood samples, tumor and nevi biopsies (when available) and tumor imaging. BRAF mutation status was determined by Sanger sequencing. Pharmacodynamic markers analyzed, in available tumor/nevus samples obtained before treatment or archival tissue and during treatment on cycle 1, day 8 or day 15, including cytoplasmic p‐MEK, p‐ERK, BIM, c‐KIT, p‐AKT473, pS6 and PTEN, and nuclear p‐ERK, Ki‐67, PARP, cyclin D1, MITF, p27, and p53. Biomarker expression was determined by calculating the percentage of change in the H‐score (14) between on‐treatment and fresh/archival pretreatment specimens. Blood levels of VEGFR‐2 and were assessed before and at multiple time points while on treatment using enzyme‐linked immunosorbent assay (ELISA). […] Changes in standard uptake value (SUV) were determined by a blinded, independent central imaging review panel. Complete metabolic response (CMR) was complete resolution of tumor FDG‐PET uptake so SUV is the same as background. Partial metabolic response (PMR) decrease in sum of the tumor SUV of ≥25% from the baseline scan. Progressive metabolic disease (PMD) was defined as an increase in tumor SUV of ≥25% from the baseline scan, or the appearance of new FDG‐PET uptake in metastatic lesions. Stable metabolic disease (SMD) was defined as a change in tumor SUV between the PMR and PMD criteria.
# p-AKT473 = test system: p-AKT473
# Description: as §1
# cyclin D1 = test system: cyclin D1
# Description: as §1
# cytoplasmic p-MEK = test system: cytoplasmic p-MEK
# Description: as §1
# PARP = test system: PARP
# Description: as §1
# c-KIT = test system: c-KIT
# Description: as §1
# cytoplasmic p-ERK = test system: cytoplasmic p-ERK
# Description: as §1
smiles,measurement,setting,value
Cn1c(Nc2ccc(C(F)(F)F)cc2)nc2cc(Oc3ccnc(-c4ncc(C(F)(F)F)[nH]4)c3)ccc21 [RAF265],"P27 % change vs pretreatment, Mean (SD)","p27; All patients, n 20",+86 (251.9) %
same,"P27 % change vs pretreatment, Median","p27; All patients, n 20",+5%
same,"P27 % change vs pretreatment, Mean (SD)","p27; DL 5, n 2",-40 (56.6) %
same,"P27 % change vs pretreatment, Median","p27; DL 5, n 2",-40%
same,"p27 abundance, median increase",p27; DL 6,30.4%
same,"P27 % change vs pretreatment, Mean (SD)","p27; DL 6, n 5",+156.4 (312.2) %
same,"P27 % change vs pretreatment, Median","p27; DL 6, n 5",+30.4%
same,"p27 abundance, median increase",p27; DL 7/7.1,72.2%
same,"P27 % change vs pretreatment, Mean (SD)","p27; DLs 1 - 4, n 9",-2.2 (44) %
same,"P27 % change vs pretreatment, Median","p27; DLs 1 - 4, n 9",0%
same,"P27 % change vs pretreatment, Mean (SD)","p27; DLs 7 and 7.1, n 4",+261.1 (427.3) %
same,"P27 % change vs pretreatment, Median","p27; DLs 7 and 7.1, n 4",+72.2%
same,"PAKT473 % change vs pretreatment, Mean (SD)","p-AKT473; All patients, n 19",+1.2 (105.4) %
same,"PAKT473 % change vs pretreatment, Median","p-AKT473; All patients, n 19",-4.6%
same,"PAKT473 % change vs pretreatment, Mean (SD)","p-AKT473; DL 5, n 1",-4.6%
same,"PAKT473 % change vs pretreatment, Median","p-AKT473; DL 5, n 1",-4.6%
same,"p-AKT, median decrease",p-AKT473; DL 6,46.7%
same,"PAKT473 % change vs pretreatment, Mean (SD)","p-AKT473; DL 6, n 4",-48.4(55.9) %
same,"PAKT473 % change vs pretreatment, Median","p-AKT473; DL 6, n 4",-46.7%
same,"PAKT473 % change vs pretreatment, Mean (SD)","p-AKT473; DLs 1 - 4, n 11",+20.1(132.9) %
same,"PAKT473 % change vs pretreatment, Median","p-AKT473; DLs 1 - 4, n 11",-20%
same,"PAKT473 % change vs pretreatment, Mean (SD)","p-AKT473; DLs 7 and 7.1, n 3",0%
same,"PAKT473 % change vs pretreatment, Median","p-AKT473; DLs 7 and 7.1, n 3",0%
same,"Cyclin D1 % change vs pretreatment, Mean (SD)","cyclin D1; All patients, n 23",+0.19 (93.7) %
same,"Cyclin D1 % change vs pretreatment, Median","cyclin D1; All patients, n 23",-25%
same,"Cyclin D1 % change vs pretreatment, Mean (SD)","cyclin D1; DL 5, n 3",+56.8 (125.6) %
same,"Cyclin D1 % change vs pretreatment, Median","cyclin D1; DL 5, n 3",+5.00%
same,"Cyclin D1 % change vs pretreatment, Mean (SD)","cyclin D1; DL 6, n 5",-49.12 (30.7) %
same,"Cyclin D1 % change vs pretreatment, Median","cyclin D1; DL 6, n 5",-48.9%
same,"Cyclin D1 % change vs pretreatment, Mean (SD)","cyclin D1; DLs 1 - 4, n 10",-4.5 (95) %
same,"Cyclin D1 % change vs pretreatment, Median","cyclin D1; DLs 1 - 4, n 10",-24%
same,"Cyclin D1 % change vs pretreatment, Mean (SD)","cyclin D1; DLs 7 and 7.1, n 5",+25 (113.6) %
same,"Cyclin D1 % change vs pretreatment, Median","cyclin D1; DLs 7 and 7.1, n 5",0%
same,"cyclin D1, median decrease",cyclin D1; in vivo,25%
same,"cytoplasmic pMEK % change vs pretreatment, Mean (SD)","cytoplasmic p-MEK; All patients, n 23",-4.3 (32) %
same,"cytoplasmic pMEK % change vs pretreatment, Median","cytoplasmic p-MEK; All patients, n 23",-9.1%
same,"cytoplasmic pMEK % change vs pretreatment, Mean (SD)","cytoplasmic p-MEK; DL 5, n 2",0%
same,"cytoplasmic pMEK % change vs pretreatment, Median","cytoplasmic p-MEK; DL 5, n 2",0%
same,"cytoplasmic pMEK % change vs pretreatment, Mean (SD)","cytoplasmic p-MEK; DL 6, n 6",-16.1 (17.3) %
same,"cytoplasmic pMEK % change vs pretreatment, Median","cytoplasmic p-MEK; DL 6, n 6",-15.3%
same,"cytoplasmic pMEK % change vs pretreatment, Mean (SD)","cytoplasmic p-MEK; DLs 1 - 4, n 11",+0.8 (44.4) %
same,"cytoplasmic pMEK % change vs pretreatment, Median","cytoplasmic p-MEK; DLs 1 - 4, n 11",-11.1%
same,"cytoplasmic pMEK % change vs pretreatment, Mean (SD)","cytoplasmic p-MEK; DLs 7 and 7.1, n 4",-2.6 (5.3) %
same,"cytoplasmic pMEK % change vs pretreatment, Median","cytoplasmic p-MEK; DLs 7 and 7.1, n 4",0%
same,"PARP % change vs pretreatment, Mean (SD)","PARP; All patients, n 14",+89.1 (172.3) %
same,"PARP % change vs pretreatment, Median","PARP; All patients, n 14",+33.3%
same,"PARP % change vs pretreatment, Mean (SD)","PARP; DL 6, n 3",+20.00 (121.2) %
same,"PARP % change vs pretreatment, Median","PARP; DL 6, n 3",0.00%
same,"PARP % change vs pretreatment, Mean (SD)","PARP; DLs 1 - 4, n 8",+65.1 (180.5) %
same,"PARP % change vs pretreatment, Median","PARP; DLs 1 - 4, n 8",-20%
same,"PARP % change vs pretreatment, Mean (SD)","PARP; DLs 7 and 7.1, n 3",+222.2 (167.8) %
same,"PARP % change vs pretreatment, Median","PARP; DLs 7 and 7.1, n 3",+200.00%
same,"CKIT % change vs pretreatment, Median","c-KIT; All patients, n 8",0%
same,"CKIT % change vs pretreatment, Mean (SD)","c-KIT; DL 6, n 1",0%
same,"CKIT % change vs pretreatment, Median","c-KIT; DL 6, n 1",0%
same,"CKIT % change vs pretreatment, Mean (SD)","c-KIT; DLs 1 - 4, n 4",-60 (80) %
same,"CKIT % change vs pretreatment, Median","c-KIT; DLs 1 - 4, n 4",-100%
same,"CKIT % change vs pretreatment, Mean (SD)","c-KIT; DLs 7 and 7.1, n 3",0%
same,"CKIT % change vs pretreatment, Median","c-KIT; DLs 7 and 7.1, n 3",0%
same,"p-ERK IHC staining, on-treatment versus pretreatment",cytoplasmic p-ERK; 23 patients,dose‐dependent p‐ERK inhibition
same,"cytoplasmic pERK % change vs pretreatment, Mean (SD)","cytoplasmic p-ERK; All patients, n 13",-3.6 (48.6) %
